Results published in patent US10502742B2, “Flourescent exomarker probes for hydrogen sulfide detection” (AMRITA VISHWA VIDYAPEETHAM, priority 2017, dated 2019).
One block for each molecule: values may come before it.

Experiments:
[1] = Fluorescence response of Mito-HS to variable concentrations of Na2S (H2S) in PBS
Procedure: UV-Vis and fluorescence spectroscopy was studied and changes of Mito-HS was recorded in variable concentrations of Na2S (0-200 μM) in PBS buffer solution containing 0.2% of DMSO at physiological pH (pH 7.4) to study the performance of the probe in H2S (Na2S) environment as shown in FIG. 3A-C. In FIG. 3A, the UV-Vis absorption band at λab 370 nm gradually decreases with the appearance of a new absorption band at λab 395 nm in the presence of variable concentrations of H2S.

[2] = Time-dependent fluorescence of Mito-HS in the presence of H2S; details: H2S (20.0 eq.)
Procedure: The environment of biological entities in cellular milieu is temporal, henceforth, the response time of probe for an analyte is crucial. Thus, time-dependent fluorescence data at λmax 450 nm were recorded in the presence of H2S (20.0 eq.). […] The rate of reaction of Mito-HS with H2S was calculated to be 5.4×10^−3 s^−1.

[3] = Selectivity: fluorescence responses in the presence of biologically important analytes; details: Mito-HS 5 μM; PBS, 0.2% DMSO, pH 7.4, 37° C.; excitation 380 nm
Procedure: Fluorescence responses of Mito-HS (5 μM) in the presence of various biologically important analytes such as H2S, cysteine (Cys), H2O2, NaNO2, Cu(OAc)2, Zn(OAc)2, FeSO4, FeCl3, Na2CO3, GSH, and ascorbic acid (AA) NO, Na2S2O4 in aqueous solutions (in PBS, 0.2% DMSO, pH=7.4) at 37° C. were studied as shown in FIG. 5. Excitation wavelength was set at 380 nm and excitation and emission slit widths both set at 3 nm. Error bars were obtained from triplet experimental data. […] So, the experiment supported the proposed concept of using Mito-HS to track cellular H2S over other competing substances such as thiols.

[4] = Physiological pH stability study by fluorescence spectrometry; assay type: physicochemical
Source text: The stability and reactivity of Mito-HS toward H2S in various physiological pH was studied in fluorescence spectrometry as shown in FIG. 6.

[5] = Detection of H2S in blood serum by fluorescence spectroscopy; details: fetal bovine serum (0.45 mM albumin protein), 37° C.; ex 380 nm, em 450 nm
Procedure: Fluorescence spectroscopy was performed for Mito-HS in fetal bovine serum at 37° C. Excitation and emission wavelengths were set at 380 nm and 450 nm respectively and slit widths at 3 nm.

DU145 cells [6] = assay: In vitro cytotoxicity, MTT assay; assay type: cell-based, Human; details: 48 h incubation
Procedure: (§1) Human cervical cancer cells (HeLa), breast cancer cells (MDA-MB-231), prostate cancer cells (DU 145) and 3T3-L1 fibroblast cells were cultured in DMEM high glucose media supplemented with 10% fetal bovine serum, 1% Penstrep, 0.2% Amphotericin B. The cells were grown overnight at 37° C. incubator with 5% CO2. HeLa, MDA-MB-231, DU 145, and 3T3-L1 cells were seeded at a density of 0.3×10^6 cells in 35 mm dish and kept overnight. The probe Mito-HS prepared in Example 1 was dissolved in 0.2% DMSO to make a stock concentration of 10 mM. The cells were treated with 5 μM of Mito-HS for 15 min. 300-550 nm excitation light was used to measure its fluorescence properties. Images were acquired using Zeiss Fluorescence Microscope (A1 Axiovert) with ×40 objective lens.
(§2) Prior to the application of probe in vitro, cytotoxicity study was performed to check its biocompatibility. HeLa, MDA-MB-231 and DU145 cells were considered to assess the cytotoxicity of Mito-HS by conventional MTT assay. The cells were treated with Mito-HS and incubated for 48 h.

HeLa cells [7] = assay: In vitro cytotoxicity, MTT assay; assay type: cell-based, Human; details: 48 h incubation
Procedure: as §1, §2

MDA-MB-231 cells [8] = assay: In vitro cytotoxicity, MTT assay; assay type: cell-based, Human; details: MDA-MB-231, MTT, 48 h incubation
Procedure: as §1, §2

[9] = Determination of fluorescence quantum yield; assay type: physicochemical; details: PBS 10 mM, pH 7.4, quinine standard
Procedure: The fluorescence quantum yield of Mito-HS was determined in the presence and absence of H2S in PBS buffer solution of 10 mM concentration and in the physiological pH of 7.4 taking quinine (ΦX=0.542) as standard. The fluorescence quantum yield was calculated by the equation: ΦS=ΦX (ASFS/AXFX), where, AS and AX are the absorbance of the sample and the reference, respectively; at the same excitation wavelength, FS and FX are the corresponding relative integrated fluorescence intensities. The quantum yield for Mito-HS calculated to be 0.045 was increased to 0.479 due to formation of FL-1 in the presence of H2S.

DU145 cells [10] = assay: Fluorescence microscopy of endogenous H2S in cells; assay type: cell-based, Human
Procedure: as §1
(§3) Fluorescence microscopic study was performed for Mito-HS treated and untreated cancer cells (HeLa, MDA-MB-231 and DU145 cells) and normal cell (3T3-L1 cells) by illuminating lights of 390 nm as excitation wavelength and monitoring the emission over 440-500 nm range. […] In contrast, Mito-HS pretreated normal cells were remained non-fluorescent under similar conditions even after an hour. The insufficient production of H2S in 3T3-L1 cells was responsible for their non-fluorescent images.
(§4) To assure that the fluorescence image of the Mito-HS treated cells were solely due to production of endogenous H2S instead of any other endogenous thiol-like entities such as GSH, cysteine and homocysteine, HeLa, MDA-MB-231 and DU145 cells were pretreated with a thiol-masking agent, here N-ethyl maleimide (NEM).

HeLa cells [11] = assay: Fluorescence microscopy of endogenous H2S in cells; assay type: cell-based, Human
Procedure: as §1, §3, §4

MDA-MB-231 cells [12] = assay: Fluorescence microscopy of endogenous H2S in cells; assay type: cell-based, Human
Procedure: as §1, §3, §4

3T3-L1 cells = assay: Fluorescence microscopy of endogenous H2S in cells; assay type: cell-based; details: 3T3-L1 normal cells, similar conditions, even after an hour
Procedure: as §1, §3

[13] = system: mitochondria of DU145 cells; assay: Co-localization experiment with MitoSox Red; assay type: cell-based, Human
Procedure: (§5) In order to evaluate the mito-targeting nature of Triphenylphosphonium ion of Mito-HS, a co-localization experiment was carried out with MitoSox Red, which is a mitochondria targeting dye, to make a comparison study.

[14] = system: mitochondria of HeLa cells; assay: Co-localization experiment with MitoSox Red; assay type: cell-based, Human
Procedure: as §5

[15] = system: mitochondria of MDA MB 231 cells; assay: Co-localization experiment with MitoSox Red; assay type: cell-based, Human
Procedure: as §5

[16] = reference standard value; cited from earlier work

pH range in which stable ([4]; in absence of H2S, fluorescence spectrometry): 4-9
fluorescence quantum yield ([9]; absence of H2S): 0.045
fluorescence quantum yield ([9]; presence of H2S (formation of FL-1)): 0.479
Structure (SMILES): [N-]=[N+]=Nc1ccc2cc(C(=O)NCC[P+](c3ccccc3)(c3ccccc3)c3ccccc3)c(=O)oc2c1 [Mito-HS]
H2S concentration at fluorescence saturation point ([1]; H2S 0-200 μM added, λmax 450 nm): 200 µM
fluorescence intensity increase in the presence of H2S ([1]; H2S 200 μM, λmax 450 nm, PBS pH 7.4, 0.2% DMSO): ~43 fold
H2S concentration range detectable (physiological condition) ([1]; PBS pH 7.4, 0.2% DMSO): 10-600 μM
lower detection limit for H2S ([1]; calculated by applying regression equation): 24.3 nM
rate of reaction of Mito-HS with H2S ([2]; fluorescence at λmax 450 nm): 0.0054 s⁻¹
time at which fluorescence intensity plateaued ([2]; λmax 450 nm): > 40 min
fluorescence change with analytes other than H2S [3]: none of the analytes showed considerable fluorescence change other than H2S
fluorescence intensity toward H2S at various pH ([4]; in H2S environment, pH 4-9): high fluorescence intensity was observed in H2S environment with sharp depreciation in lower pH range
increase of fluorescence intensity in blood serum [5]: 30 fold
cytotoxicity (cell viability) (DU145 cells [6]): did not show cytotoxic behavior
cytotoxicity (cell viability) (HeLa cells [7]): did not show cytotoxic behavior
cytotoxicity (cell viability) (MDA-MB-231 cells [8]): did not show cytotoxic behavior
cell fluorescence image (DU145 cells [10]; DU145, Mito-HS 5.0 μM, ex 390 nm, em 440-500 nm): strong fluorescence
cell fluorescence after pretreatment with thiol-masking agent NEM (DU145 cells [10]; DU145, NEM pretreated): equally fluorescent labeled
cell fluorescence image (HeLa cells [11]; Mito-HS 5.0 μM, ex 390 nm, em 440-500 nm): strong fluorescence
cell fluorescence after pretreatment with thiol-masking agent NEM (HeLa cells [11]; NEM pretreated vs NEM untreated): equally fluorescent labeled
cell fluorescence image (MDA-MB-231 cells [12]; MDA-MB-231, Mito-HS 5.0 μM, ex 390 nm, em 440-500 nm): strong fluorescence
cell fluorescence after pretreatment with thiol-masking agent NEM (MDA-MB-231 cells [12]; MDA-MB-231, NEM pretreated): equally fluorescent labeled
cell fluorescence image (3T3-L1 cells): non-fluorescent
subcellular localization [13]: predominantly in mitochondria
subcellular localization [14]: predominantly in mitochondria
subcellular localization [15]: predominantly in mitochondria

Structure (SMILES): C=C[C@H]1C[N@@]2CC[C@H]1C[C@H]2[C@H](O)c1ccnc2ccc(OC)cc12 [quinine]
fluorescence quantum yield of standard (ΦX) [16]: 0.542
